How the values were obtained:
Experiment in all cases: relative viability (nuclei count vs DMSO), 5 days (fraction); higher = more cells survive
Dabrafenib + Trametinib = compound: CC(C)(C)c1nc(-c2cccc(NS(=O)(=O)c3c(F)cccc3F)c2F)c(-c2ccnc(N)n2)s1 [Dabrafenib] + CC(=O)Nc1cccc(-n2c(=O)n(C3CC3)c(=O)c3c(Nc4ccc(I)cc4F)n(C)c(=O)c(C)c32)c1 [Trametinib] (partner 0.02 µM)
Outline: (§1)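 Cells from lung cancer lines were seeded into 1536-well plates and, one day later, dosed by pin tool. Treatments were either a single drug or a fixed dose of an anchor drug with five library-drug doses (not always all listed) in √10 steps. After 5 days, nuclei were stained in a one-step fixation (final 0.05% Triton X-100, 1% formaldehyde, 1 ug/ml Hoechst) and counted on 4× images, and relative viability is the treated-to-vehicle nuclei ratio, as the median of duplicate plates.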

Dabrafenib + Luminespib = compound: CC(C)(C)c1nc(-c2cccc(NS(=O)(=O)c3c(F)cccc3F)c2F)c(-c2ccnc(N)n2)s1 [Dabrafenib] + CCNC(=O)c1noc(-c2cc(C(C)C)c(O)cc2O)c1-c1ccc(CN2CCOCC2)cc1 [Luminespib] (partner 0.01 µM)
Outline: as §1

Dabrafenib + Tozasertib = compound: CC(C)(C)c1nc(-c2cccc(NS(=O)(=O)c3c(F)cccc3F)c2F)c(-c2ccnc(N)n2)s1 [Dabrafenib] + Cc1cc(Nc2cc(N3CCN(C)CC3)nc(Sc3ccc(NC(=O)C4CC4)cc3)n2)n[nH]1 [Tozasertib] (partner 0.1 µM)
Outline: as §1

Dabrafenib + Phenformin = compound: CC(C)(C)c1nc(-c2cccc(NS(=O)(=O)c3c(F)cccc3F)c2F)c(-c2ccnc(N)n2)s1 [Dabrafenib] + N=C(N)NC(=N)NCCc1ccccc1 [Phenformin] (partner 250 µM)
Outline: as §1

VX-702 + Pemetrexed = compound: NC(=O)c1ccc(N(C(N)=O)c2c(F)cccc2F)nc1-c1ccc(F)cc1F [VX-702] + Nc1nc2[nH]cc(CCc3ccc(C(=O)N[C@@H](CCC(=O)O)C(=O)O)cc3)c2c(=O)[nH]1 [Pemetrexed] (partner 0.2 µM)
Outline: as §1

VX-702 + Vorinostat = compound: NC(=O)c1ccc(N(C(N)=O)c2c(F)cccc2F)nc1-c1ccc(F)cc1F [VX-702] + O=C(CCCCCCC(=O)Nc1ccccc1)NO [Vorinostat] (partner 1 µM)
Outline: as §1

SW 900
relative viability (Dabrafenib + Trametinib; first compound 0.009487 µM): 0.671
relative viability (Dabrafenib + Trametinib; first compound 0.09487 µM): 1.04
relative viability (Dabrafenib + Trametinib; first compound 0.3 µM): 0.93
relative viability (Dabrafenib + Luminespib; first compound 0.009487 µM): 0.186
relative viability (Dabrafenib + Luminespib; first compound 0.03 µM): 0.166
relative viability (Dabrafenib + Luminespib; first compound 0.3 µM): 0.214
relative viability (Dabrafenib + Tozasertib; first compound 0.009487 µM): 0.711
relative viability (Dabrafenib + Tozasertib; first compound 0.03 µM): 0.527
relative viability (Dabrafenib + Tozasertib; first compound 0.3 µM): 0.632
relative viability (Dabrafenib + Phenformin; first compound 0.009487 µM): 0.579
relative viability (Dabrafenib + Phenformin; first compound 0.03 µM): 0.561
relative viability (Dabrafenib + Phenformin; first compound 0.3 µM): 0.86
relative viability (VX-702 + Pemetrexed; first compound 0.02 µM): 0.51
relative viability (VX-702 + Pemetrexed; first compound 0.2 µM): 0.488
relative viability (VX-702 + Pemetrexed; first compound 0.6325 µM): 0.474
relative viability (VX-702 + Pemetrexed; first compound 2 µM): 0.464
relative viability (VX-702 + Vorinostat; first compound 0.02 µM): 0.492
relative viability (VX-702 + Vorinostat; first compound 0.2 µM): 0.444
relative viability (VX-702 + Vorinostat; first compound 0.6325 µM): 0.558
relative viability (VX-702 + Vorinostat; first compound 2 µM): 0.516
